Blank lines part the entries; values can stand above or below the compound they belong to.
Experiments:
[1] = Stomach homogenate conversion assay; type: in vitro ADME, mice; settings: 50 μg/mL; for percentage of prodrug remaining after 20 h of incubation, stomach homogenate: ex vivo
[2] = Intestinal homogenate conversion assay; type: in vitro ADME, mice; settings: 50 μg/mL; for percentage of prodrug remaining after 20 h of incubation, intestine homogenate: ex vivo
[3] = Lipophilicity (logD) by shake flask method
[4] = Aqueous stability in acidic and basic buffer (HPLC); settings: post 24 h of incubation; for chemical stability, pH (3.0): percentage of parent remaining: acidic buffer; for chemical stability, pH (7.6): percentage of parent remaining: basic buffer
[5] = Bioconversion of prodrugs in plasma, ex vivo (mice); settings: 200 μg/mL; for % of prodrug remaining at 20 h, mice plasma: 37 °C, ex vivo; for eAUC20m–20h in mice plasma, prodrug: 20 h ex vivo incubation
[6] = Bioconversion of prodrugs in plasma, ex vivo (human); settings: 200 μg/mL; for % of prodrug remaining at 20 h, human plasma: 37 °C, ex vivo; for eAUC20m–20h in human plasma, prodrug: 20 h ex vivo incubation
[7] = Chemical stability in neat DMSO (UV spectrophotometer); settings: post 24 h of incubation
[8] = In vivo plasma exposure after a single oral dose (RACE-PK); settings: single oral dose 10 mg/kg; for plasma eAUC20m–120m (AcINH) / plasma eAUC20m–120m (INH): n=3
[9] = Complete pharmacokinetic analysis after a single oral dose; settings: for concentration at 0.33 h / concentration at 1 h / concentration at 2 h / concentration at 4 h / concentration at 6 h / concentration at 24 h: Balb/C, mouse, plasma, po, 10 mg/kg of INH (prodrugs at molar equivalent); for plasma concentration of free INH (mean) / plasma concentration of released AcINH (mean) / plasma concentration of released INA (mean) / Vd, unchanged prodrug / plasma level of AcHz formed in vivo: single oral dose; for Vd, unchanged prodrug: molar equivalent of 10 mg/kg INH; for plasma level of AcHz formed in vivo: all time points 0.083–24 h
[10] = Aqueous solubility in Tris HCl buffer (pH 7.4), shake flask method; settings: 37 °C, pH 7.4, aqueous buffer, thermodynamic from solid
[11] = In vivo plasma exposure after repetitive single oral dosing for 10 consecutive days; settings: 10th dose, oral, molar equivalent of 10 mg/kg INH

Structure (SMILES): COC(=O)NNC(=O)c1ccncc1.Cl [prodrug 1a]
- eAUC0–20h in stomach homogenate, prodrug [1]: 412,453 ng·h/mL
- percentage of prodrug remaining after 20 h of incubation, stomach homogenate [1]: 1%
- eAUC0–20h in intestinal homogenate, prodrug [2]: 908,764 ng·h/mL
- percentage of prodrug remaining after 20 h of incubation, intestine homogenate [2]: 85%
- logD [3]: -0.2
- chemical stability, pH (3.0): percentage of parent remaining [4]: 100.0%
- chemical stability, pH (7.6): percentage of parent remaining [4]: 100.0%
- % of prodrug remaining at 20 h, mice plasma [5]: 70.5%
- eAUC20m–20h in mice plasma, prodrug [5]: 1650 ± 930 ng·h/mL
- % of prodrug remaining at 20 h, human plasma [6]: 40.1%
- eAUC20m–20h in human plasma, prodrug [6]: 1418 ± 824 ng·h/mL
- chemical stability, DMSO: percentage of parent remaining [7]: 100.0%
- plasma concentration of AcINH at 20 min [8]: BLQ
- plasma concentration of in vivo released free INH at 20 min [8]: BLQ
- plasma eAUC20m–120m (AcINH) [8]: BLQ ^d
- plasma eAUC20m–120m (INH) [8]: BLQ ^d
- concentration at 0.33 h [9]: 148000 ng/mL
- concentration at 1 h [9]: 63200 ng/mL
- concentration at 2 h [9]: 31400 ng/mL
- concentration at 4 h [9]: 1400 ng/mL
- concentration at 6 h [9]: 571 ng/mL
- concentration at 24 h [9]: 208 ng/mL
- plasma concentration of free INH (mean) ([9]; 1 h): BLQ
- plasma concentration of released AcINH (mean) ([9]; 1 h): BLQ
- plasma concentration of free INH (mean) ([9]; 2 h): BLQ
- plasma concentration of released AcINH (mean) ([9]; 2 h): BLQ
- plasma concentration of free INH (mean) ([9]; 4 h): BLQ
- plasma concentration of released AcINH (mean) ([9]; 4 h): BLQ
- plasma concentration of released INA (mean) ([9]; 4 h): BLQ
- plasma concentration of free INH (mean) ([9]; 6 h): BLQ
- plasma concentration of released AcINH (mean) ([9]; 6 h): BLQ
- plasma concentration of released INA (mean) ([9]; 6 h): BLQ
- plasma concentration of free INH (mean) ([9]; 24 h): BLQ
- plasma concentration of released AcINH (mean) ([9]; 24 h): BLQ
- plasma concentration of released INA (mean) ([9]; 24 h): BLQ
- Vd, unchanged prodrug [9]: 0.077 ± 0.004 L/kg
- plasma level of AcHz formed in vivo [9]: BLQ
- solubility at 24 h ([10]; Tris HCl buffer): 213 mg/mL
- eAUC20m–6h (AcHz) [11]: BLQ ^d

Structure (SMILES): CCOC(=O)NNC(=O)c1ccncc1.Cl [prodrug 1b]
- logD [3]: -0.01
- chemical stability, pH (7.6): percentage of parent remaining [4]: 100.0%
- % of prodrug remaining at 20 h, mice plasma [5]: 13.8%
- eAUC20m–20h in mice plasma, prodrug [5]: 1214 ± 758 ng·h/mL
- % of prodrug remaining at 20 h, human plasma [6]: 47.5%
- eAUC20m–20h in human plasma, prodrug [6]: 1402 ± 957 ng·h/mL
- chemical stability, DMSO: percentage of parent remaining [7]: 100.0%
- plasma concentration of AcINH at 20 min [8]: BLQ
- plasma eAUC20m–120m (AcINH) [8]: BLQ ^d
- solubility at 24 h ([10]; Tris HCl buffer): 326 mg/mL
- eAUC20m–6h (AcHz) [11]: BLQ ^d

Structure (SMILES): CCCOC(=O)NNC(=O)c1ccncc1.Cl [prodrug 1c]
- logD [3]: 0.2
- chemical stability, pH (7.6): percentage of parent remaining [4]: 100.0%
- eAUC20m–20h in mice plasma, prodrug [5]: 551 ± 81 ng·h/mL
- eAUC20m–20h in human plasma, prodrug [6]: 860 ± 131 ng·h/mL
- chemical stability, DMSO: percentage of parent remaining [7]: 100.0%
- plasma concentration of AcINH at 20 min [8]: BLQ
- plasma concentration of in vivo released free INH at 20 min [8]: BLQ
- plasma eAUC20m–120m (AcINH) [8]: BLQ ^d
- plasma eAUC20m–120m (INH) ([8]; 10 mg/kg): BLQ and BLQ ^d
- solubility at 24 h ([10]; Tris HCl buffer): 86 mg/mL
- eAUC20m–6h (AcHz) [11]: BLQ ^d

Structure (SMILES): Cl.O=C(NNC(=O)c1ccncc1)Oc1ccccc1 [prodrug 1j]
- logD [3]: 0.9
- chemical stability, pH (3.0): percentage of parent remaining [4]: 94.6%
- chemical stability, pH (7.6): percentage of parent remaining [4]: 58.2%
- % of prodrug remaining at 20 h, mice plasma [5]: 85.5%
- eAUC20m–20h in mice plasma, prodrug [5]: 7347 ± 655 ng·h/mL
- % of prodrug remaining at 20 h, human plasma [6]: below the quantification limit and BLQ
- eAUC20m–20h in human plasma, prodrug [6]: 752 ± 355 ng·h/mL
- chemical stability, DMSO: percentage of parent remaining [7]: 100.0%
- plasma concentration of AcINH at 20 min [8]: BLQ
- plasma eAUC20m–120m (AcINH) [8]: BLQ ^d
- solubility at 24 h [10]: 12.4 mg/mL

The next lines start with results.

- logD [3]: 0.8
- chemical stability, pH (3.0): percentage of parent remaining [4]: 100.0%
- chemical stability, pH (7.6): percentage of parent remaining [4]: 100.0%
- eAUC20m–20h in mice plasma, prodrug [5]: 180 ± 36 ng·h/mL
- eAUC20m–20h in human plasma, prodrug [6]: 640 ± 116 ng·h/mL
- chemical stability, DMSO: percentage of parent remaining [7]: 100.0%
- solubility at 24 h ([10]; Tris HCl buffer): 49.4 mg/mL
- eAUC20m–6h (AcHz) [11]: BLQ ^d
Structure (SMILES): CCCCOC(=O)NNC(=O)c1ccncc1.Cl [prodrug 1e]

- logD [3]: 0.9
- chemical stability, pH (3.0): percentage of parent remaining [4]: 98.17%
- chemical stability, pH (7.6): percentage of parent remaining [4]: 100.0%
- % of prodrug remaining at 20 h, mice plasma [5]: 13.2%
- eAUC20m–20h in mice plasma, prodrug [5]: 382 ± 302 ng·h/mL
- eAUC20m–20h in human plasma, prodrug [6]: 854 ± 615 ng·h/mL
- chemical stability, DMSO: percentage of parent remaining [7]: 100.0%
- solubility at 24 h ([10]; Tris HCl buffer): 29.3 mg/mL
- eAUC20m–6h (AcHz) [11]: BLQ ^d
Structure (SMILES): CC(C)COC(=O)NNC(=O)c1ccncc1.Cl [prodrug 1f]

- logD [3]: 0.2
- chemical stability, pH (3.0): percentage of parent remaining [4]: 96.9%
- chemical stability, pH (7.6): percentage of parent remaining [4]: 100.0%
- % of prodrug remaining at 20 h, mice plasma [5]: highly labile and BLQ
- eAUC20m–20h in mice plasma, prodrug [5]: 168 ± 91 ng·h/mL
- % of prodrug remaining at 20 h, human plasma [6]: significant lability and BLQ
- eAUC20m–20h in human plasma, prodrug [6]: 530 ± 316 ng·h/mL
- chemical stability, DMSO: percentage of parent remaining [7]: 100.0%
- solubility at 24 h ([10]; Tris HCl buffer): 402 mg/mL
- eAUC20m–6h (AcHz) [11]: BLQ ^d
Structure (SMILES): C=CCOC(=O)NNC(=O)c1ccncc1.Cl [prodrug 1g]

- eAUC0–20h in stomach homogenate, prodrug [1]: 691,560 ng·h/mL
- percentage of prodrug remaining after 20 h of incubation, stomach homogenate [1]: 29%
- eAUC0–20h in intestinal homogenate, prodrug [2]: 761,596 ng·h/mL
- percentage of prodrug remaining after 20 h of incubation, intestine homogenate [2]: 43%
- logD [3]: 1.1
- chemical stability, pH (3.0): percentage of parent remaining [4]: 100.0%
- chemical stability, pH (7.6): percentage of parent remaining [4]: 100.0%
- eAUC20m–20h in mice plasma, prodrug [5]: 87 ± 85 ng·h/mL
- eAUC20m–20h in human plasma, prodrug [6]: 465 ± 426 ng·h/mL
- chemical stability, DMSO: percentage of parent remaining [7]: 100.0%
- concentration at 0.33 h [9]: 6130 ng/mL
- concentration at 1 h [9]: 433 ng/mL
- concentration at 2 h [9]: 409 ng/mL
- concentration at 4 h [9]: 884 ng/mL
- concentration at 6 h [9]: 128 ng/mL
- concentration at 24 h [9]: 120 ng/mL
- plasma concentration of free INH (mean) ([9]; 4 h): BLQ
- plasma concentration of released AcINH (mean) ([9]; 4 h): BLQ
- plasma concentration of released INA (mean) ([9]; 4 h): BLQ
- plasma concentration of free INH (mean) ([9]; 6 h): BLQ
- plasma concentration of released AcINH (mean) ([9]; 6 h): BLQ
- plasma concentration of released INA (mean) ([9]; 6 h): BLQ
- plasma concentration of free INH (mean) ([9]; 24 h): BLQ
- plasma concentration of released AcINH (mean) ([9]; 24 h): BLQ
- plasma concentration of released INA (mean) ([9]; 24 h): BLQ
- Vd, unchanged prodrug [9]: 2.899 ± 0.3 L/kg
- plasma level of AcHz formed in vivo [9]: BLQ
- solubility at 24 h ([10]; Tris HCl buffer): 0.4 mg/mL
- eAUC20m–6h (AcHz) [11]: BLQ ^d
Structure (SMILES): Cl.O=C(NNC(=O)c1ccncc1)OCc1ccccc1 [prodrug 1h]

- logD [3]: 0.8
- chemical stability, pH (3.0): percentage of parent remaining [4]: 100.0%
- chemical stability, pH (7.6): percentage of parent remaining [4]: 98.3%
- % of prodrug remaining at 20 h, mice plasma [5]: 63.8%
- eAUC20m–20h in mice plasma, prodrug [5]: 1486 ± 35 ng·h/mL
- % of prodrug remaining at 20 h, human plasma [6]: 89.1%
- eAUC20m–20h in human plasma, prodrug [6]: 2788 ± 217 ng·h/mL
- chemical stability, DMSO: percentage of parent remaining [7]: 100.0%
- plasma concentration of AcINH at 20 min [8]: BLQ
- solubility at 24 h ([10]; Tris HCl buffer): 111 mg/mL
Structure (SMILES): CCC(C)OC(=O)NNC(=O)c1ccncc1.Cl (stereo not shown) [prodrug 1i]
- plasma eAUC20m–120m (AcINH) ([8]; 10 mg/kg): BLQ and below the limit of quantification and BLQ ^d

Source: publication PMC12395308 (ACS Central Science, 2025)
